This is an account of results in patent publication US20160287565A1, “COMBINATION THERAPY FOR TREATING DISORDERS ASSOCIATED WITH EXCESS CORTISOL PRODUCTION” (Millendo Therapeutics, Inc., priority 2015, published 2016).

The test system of one data set is Dogs. As to the kind of experiment: ATR-101 in dogs, serum steroid and steroid precursor levels by LC-MS/MS pre- and post-ACTH stimulation. Conditions: 3 mg/kg daily 7 days then 30 mg/kg 7 days, oral gavage. Type of data set: in vivo, dog. How it is done: Changes in steroid and steroid intermediate levels are shown as % reduction as compared to maximum level as measured on Day 0. *Day 1 data used for maximum steroid level. **Day 3 data used for maximum steroid level.
Dogs were administered daily doses of 3 mg/kg of ATR-101 for 7 days by oral gavage, and then 30 mg/kg for 7 days by oral gavage. Blood was collected on day 14 to measure basal steroid and steroid precursor serum levels (pre-ACTH stimulation) and steroid/steroid precursor levels post-ACTH stimulation by LC-MS/MS. For ACTH stimulation, 5 μg/kg (not to exceed 250 μg) of CORTROSYN™ (also known as cosyntropin or synthetic ACTH) was administered via bolus i.v. administration, and blood samples were collected 1 hour post-CORTROSYN™ administration. Changes in steroid and steroid precursor levels are shown as % reduction as compared to maximum level as measured on Day 0, except as noted (see, FIG. 2; *Day 1 data used for maximum steroid level; **Day 3 data used for maximum steroid level).

Data set [1] concerns human adult patients with Cushing's disease. Conditions: cited from earlier work.
Data set [2] concerns human, adult patients with Cushing's disease. The following applies: cited from earlier work.

With `CC(C)c1cccc(C(C)C)c1NC(=O)NCC1(c2ccc(N(C)C)cc2)CCCC1` [ATR-101, N-(2,6-bis(1-methylethyl)-phenyl)-N′-((1-(4-(dimethylamino)phenyl)cyclopentyl)-methyl)urea], in the data set with Dogs (day 14, FIG. 4), the “synthesis of steroids and steroid precursors produced in the adrenal cortex” value was “broad inhibitory effects”. In the data set with Dogs (day 14 serum), the 11-deoxycorticosterone level result is on record as “decreased”, the 11-deoxycortisol level entry is reported as “decreased” and the testosterone level result is recorded as “decreased”.
As to `N#Cc1ccc([C@H]2CCc3cncn32)c(F)c1` [osilodrostat], in data set [1] (during LCI699 treatment (day 70) vs day 1, FIG. 2A), the “secretion of ACTH” value is “increased secretion of ACTH”. Besides, in data set [1] (during LCI699 treatment (day 70), 8 females, FIG. 2C), the “testosterone levels (in females)” value is given as “increased”. The 11-deoxycortisol level entry in data set [1] (during LCI699 treatment (day 70), FIG. 2B) is recorded as “build-up”. The 11-deoxycorticosterone levels entry in data set [1] (during LCI699 treatment (day 70), FIG. 2D) is given as “increased”. For the same compound, in data set [1] (during LCI699 treatment (day 70), up to 100 mg/day b.i.d., n=12), the serum cortisol entry is “decrease in serum cortisol”. In data set [2] (22-week treatment course), the females developing acne result is given as “three”, the females developing hirsutism result was “two” and the “females with elevated testosterone who developed adverse symptoms of androgen excess” value was “Four”. Also, the “women with above normal testosterone levels during the treatment course” value in data set [2] (of the 12 women who completed 22 weeks, normal range 2-45 ng/dL, 4-60 mg/day) is 9.
